Tests used:
[1] = test system: TIC cells; experiment: TIC cell migration and invasion assays; assay type: cell-based; settings: TIC cells (FIG. 7C, 7D)
Description: Cell Lines The LX-2 human stellate cell line was maintained in Dulbecco's Modified Eagle's Medium (DMEM) supplemented with 2% fetal bovine serum (FBS), 100 IU/ml penicillin, and 100 μg/ml streptomycin. Human hepatocellular carcinoma (HCC) MHCC97H cells were maintained in DMEM supplemented with 10% FBS, 100 IU/ml penicillin, and 100 μg/ml streptomycin, 1 mM HEPES, 1 mM sodium pyruvate, 2 mM L-glutamine. Tumor-initiating (TIC) cells were obtained from Dr. Hidekazu Tsukamoto at University of Southern California and were maintained in 1:1 DMEM:F12 supplement with 100 U/ml penicillin and 100 μg/ml streptomycin, 2 mM glutamine, 20 ng/ml mouse EGF, 10 nM dexamethasone, 1× embryomax nucleotides. All the cells were maintained at 37° C. humidified atmosphere with 5% CO2. TIC cells were infected with Hmgb2 shRNA lentivirus for 48 hr, and treated with 500 ng/ml puromycin for 2 weeks. The stable cells were used for migration and invasion assay, as well as western blot.
Cell Migration and Invasion: Cell migration and invasion assays were performed as described in the art. Briefly, control TIC cells or TIC cells with a stable knockdown of HMGB2 were infected with AAV8-Null or AAV-8-HMGB2 for 48 hr. The cells were then serum starved for 24 hr and 5×10^4 cells were seeded on transwell inserts with 8 μm pore size (Culterx® 96 well cell migration assay, cat# 3465-095-K). Cells were allowed to migrate for 16 hr. Non-migrating cells were removed from the insert with a cotton swab. The migrated cells were fixed for 10 min (3.7% v/v formaldehyde in PBS), and stained with 0.1% crystal violet for 15 min. Cells were washed with PBS and pictures were taken with Microfire/Qcam CCD Olympus 1×81 microscope. Cells stained with crystal violet were counted and then lysed with 1% SDS for 30 min and the absorbance was measured at 570 nm. Cell invasion assays were performed similarly to migration assays, except that the cells were seeded on pre-coated inserts with BME solution (Cultrex® 96 well BME cell invasion Assay, cat# 3455-096-K). Invaded cells were fixed, stained and the absorbance was measured as in the migration assay.

[2] = test system: CGR8 ES cells; experiment: CGR8 ES cell differentiation and EB formation; assay type: cell-based, mouse
Description: Cell culture, Cell transfection:HEK293T, Hela, Hep3B and MHCC97H cells were cultured and transfected using X-tremeGENE™ HP DNA transfection reagent (Roche) as described previously. CGR8 ES cells were cultured on 0.1% gelatin coated tissue-culture dish in knockout DMEM medium containing 15% ES qualified-Fetal Bovine Serum, 2 mM L-glutamin, 0.1 mM NEAA, 0.1 mM β-mercaptoethanol, 50 μg/ml penicillin-streptomycin and 10 ng/ml Leukemia inhibitory factor (LIF). TIC cells were cultured in DMEM-F12 medium containing Embryomax nucleotides, 2 mM L-glutamin, 0.1 mM NEAA, 20 ng/ml mouse EGF, 50 μg/ml penicillin-streptomycin and […].
ES cells EB formation and TICs spheroid assay: CGR8 ES cells were trypsinized into single cells and cultured in ES medium devoid of LIF in hanging drops (900 cells per EB) for 2 d and transferred to ultralow attachment plate for a further 2 d suspension culture. Then, EBs were plated onto gelatin coated tissue-culture plate for further 7 d spontaneously differentiation.
FIGS. 10A-C show the establishment of CGR8 cell culture and differentiation. […] Undifferentiated feeder-free CGR8 ES cells were maintained on 0.1% gelatin coated 6-cm tissue-culture dish in ES medium containing 10 ng/ml Leukemia inhibitory factor (LIF). For EB formation, CGR8 ES cells were trypsinized into single cells and cultured in ES medium devoid of LIF in hanging drops (900 cells per EB) for 2 d and in suspension culture for a further 2 d. Then, EBs were transferred onto gelatin coated tissue-culture plate for further spontaneously differentiation. ES withdraw LIF 2d, CGR8 ES cells were cultured in ES medium devoid of LIF for 2 d.
FIG. 14A is Left, Western blot of HMGB2 and SOX2 protein in HEK293T cells transfected with 0.5 μg […] expression plasmid and 0, 1 or 2 μg Flag-HMGB2 expression plasmid. Right, Western blot of HMGB2 and OCT4 protein in HEK293T cells transfected with 0.5 μg HA-OCT4 expression plasmid and 0, 1 or 2 μg Flag-HMGB2 expression plasmid. […] CGR8 cells were lysed, co-immunoprecipitated with OCT4 antibody, followed by Western blot with HMGB2 or OCT4 antibodies. FIG. 14 C is a luciferase reporter assay. HepG2 cells were infected with AAV8-GFP or AAV8-HMGB2 24 hrs before being transfected with 6*OS luciferase reporter and OCT4, SOX2 expression plasmids alone or in combination.

Row | Molecule | cell invasion [1] | cell migration [1] | CGR8 differentiation ([2]; 5 μM ICM versus DMSO (FIG. 14E)) | spheroid formation of CGR8 cells ([2]; EB formation, AAV8 infection versus AAV8-Null (FIG. 14D)) | CGR8 differentiation ([2]; knockdown of HMGB2 (summary))
1 | CC1(C)Oc2cc(O)ccc2C2C1=CCn1c(=O)n(-c3ccccc3)c(=O)n12 (stereo not shown) [ICM, inflachromene] | markedly blocks | markedly blocks | induces CGR8 differentiation | – | –
2 | shHMGB2: small hairpin RNA against HMGB2 (SEQ ID NO: 8), delivered by AAV or lentivirus (CCGGGCTCAACATTAGCTTCAGTATCTCGAGATACTGAAGCTAATGTTGAGCTTTTTG) | decreased | decreased | – | decreases spheroid formation | promotes CGR8 differentiation

From patent US20180320177A1, “COMPOSITIONS AND METHODS FOR THE TREATMENT OF LIVER FIBROSIS” (UNIVERSITY OF CONNECTICUT, priority 2015, published 2018)
